Two molecules from article PMC12655551, “Design, Synthesis, and Evaluation of Pyrrole-Based Selective MAO-B Inhibitors with Additional AChE Inhibitory and Neuroprotective Properties Identified via Virtual Screening” (Pharmaceuticals, 2025) can be followed below.

Where two headings read alike, the source gives them in different places.

As a reminder, the inhibition is the change of the read-out against control, counted positive when it falls. In general, IC50 refers to the concentration that inhibits the measured activity by half.

Data set [1] relates to isolated rat brain microsomes. Kind of data set: Pro-oxidant effect of compounds alone on isolated rat brain microsomes (MDA). It is filed as cell-based. The following applies: compound alone, 100 μM, vs non-treated microsomes. The method, then: (§1) Two types of buffers were used for the isolation of the rat brain synaptosomes and mitochondria. Buffer A was 5 mM HEPES and 0.32 M Sucrose; Buffer B was 290 mM NaCl, 0.95 mM MgCl2 × 2H2O, 10 mM KCl, 2.4 mM CaCl2 × 2H2O, 2.1 mM NaH2PO4, 44 mM HEPES, 13 mM D-Glucose. For the gradient centrifugation, Percoll reagent was used. A stock solution of 90% Percoll was used to prepare 16%, 10% and 7.5% solutions. All the solutions were used as described below. Immediately after harvesting, synaptosomes, microsomes, and mitochondria were incubated with the exam compounds for 1 h. For assessing the possible neurotoxicity of the most MAOB active compounds, the sub-cellular fractions were incubated with 100 µM of them, and for evaluating their possible neuroprotective and antioxidant activities in different models of neurotoxicity, the sub-cellular fractions were incubated with 50µM of them. The protein measurement of all the sub-cellular fractions was made by the method of Lowry et al., 1951 [57].
(§2) The brain was homogenized in 9 vol. of 0.1 M Tris buffer containing 0.1 mM Dithiothreitol, 0.1 mM Phenylmethylsulfonyl fluoride, 0.2 mM EDTA, 1.15% KCl, and 20% (v/v) glycerol at pH 7.4. The homogenate was centrifuged twice at 17,000× g for 30 min. […]
(§3) The quantity of the lipid peroxidation product MDA was assessed using the method described by Deby and Goutier.

In data set [2] the target is T1, recombinant human MAO-B (hMAOB) (Homo sapiens, UniProt P27338).
T1 sequence (P27338 1-520): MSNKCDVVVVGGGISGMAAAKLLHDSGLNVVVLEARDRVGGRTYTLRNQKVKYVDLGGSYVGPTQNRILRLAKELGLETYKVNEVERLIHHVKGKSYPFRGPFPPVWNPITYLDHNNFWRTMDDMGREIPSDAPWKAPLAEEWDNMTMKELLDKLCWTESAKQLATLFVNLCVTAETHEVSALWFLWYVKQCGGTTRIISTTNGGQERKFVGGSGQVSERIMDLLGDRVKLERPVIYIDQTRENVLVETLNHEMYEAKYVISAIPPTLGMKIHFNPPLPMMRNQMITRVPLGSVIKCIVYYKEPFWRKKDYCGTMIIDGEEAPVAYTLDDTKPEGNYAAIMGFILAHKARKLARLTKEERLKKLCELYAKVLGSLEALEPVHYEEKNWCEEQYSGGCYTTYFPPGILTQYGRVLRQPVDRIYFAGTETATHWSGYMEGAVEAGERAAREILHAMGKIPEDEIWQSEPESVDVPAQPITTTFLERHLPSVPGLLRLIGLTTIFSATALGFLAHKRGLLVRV
Kind of data set: biochemical. In kind it is biochemical. As to conditions: 1 µM compound. The method, then: Monoamine oxidase (MAO) activity for both recombinant human MAO-A (hMAOA) and MAO-B (hMAOB) was assessed using a fluorometric assay based on the Amplex® UltraRed reagent. This method, originally reported by Bautista-Aguilera et al. and later adapted with minor changes by Kasabova-Angelova et al., detects hydrogen peroxide or peroxidase activity present in enzymes or biological samples. In this assay, Amplex® Red reacts in a 1:1 molar ratio with hydrogen peroxide in the presence of peroxidase, producing the red-fluorescent compound resorufin. Due to resorufin’s strong extinction coefficient (58,000 ± 5000 cm^−1·M^−1), measurements could be accurately taken using either fluorometric or spectrophotometric methods. […] The control conditions included the use of purified hMAOA or hMAOB in reaction buffer, enzyme solutions with hydrogen peroxide, and buffer alone. All the test compounds were initially prepared at a 1 µM final concentration. These compounds were combined with either hMAOA or hMAOB and loaded into a 96-well plate (with eight replicates per test compound), followed by incubation for 30 min at 37 °C in the dark. Subsequently, a 50 µL detection mix was added to each well. This mix contained Amplex® Red, horseradish peroxidase (HRP), and tyramine substrate, all prepared in a reaction buffer. As this enzymatic reaction proceeded continuously, the fluorescence signal was recorded every 30 min (at 0, 30, 60, 90, 120, and 150 min) to track enzymatic kinetics.

The subject of data set [3] is isolated rat brain microsomes. Kind of data set: FeSO4/ascorbic acid-induced lipid peroxidation in isolated rat brain microsomes. As to conditions: compound 50 μM with Fe/AA. It is filed as cell-based. The method, then: as §1, §2, §3
For data set [4], the system named is isolated rat brain mitochondria. Kind of data set: Toxicity of compounds alone on isolated rat brain mitochondria (MDA, GSH). In kind it is cell-based. As to conditions: compound alone, 100 μM, vs non-treated mitochondria. Here is the method:
as §1
The mitochondria were prepared by multiple differential fractionation using a Percoll gradient.
After incubation of the mitochondria, 0.3 mL 0.2% TBA and 0.25 mL sulfuric acid (0.05 M) were added to stop the reaction. The tubes were maintained at 100 °C for 30 min. In the next stage, centrifugation of the tubes was carried out at 3500× g for 10 min. Assessment of the total quantity of MDA formed in each sample was measured in the supernatant at 532 nm.
After incubation of mitochondria, 0.04% DTNB was mixed with the mitochondrial suspensions in 0.1 M phosphate buffer (pH 7.4). The absorbance of the yellow product was measured at 412 nm.

For the next data set, the target named is T2, BChE (Equus caballus, UniProt P81908).
T2 construct: purchased Sigma-Aldrich, Hamburg, Germany; host or cells: equine serum
T2 sequence (P81908 whole entry): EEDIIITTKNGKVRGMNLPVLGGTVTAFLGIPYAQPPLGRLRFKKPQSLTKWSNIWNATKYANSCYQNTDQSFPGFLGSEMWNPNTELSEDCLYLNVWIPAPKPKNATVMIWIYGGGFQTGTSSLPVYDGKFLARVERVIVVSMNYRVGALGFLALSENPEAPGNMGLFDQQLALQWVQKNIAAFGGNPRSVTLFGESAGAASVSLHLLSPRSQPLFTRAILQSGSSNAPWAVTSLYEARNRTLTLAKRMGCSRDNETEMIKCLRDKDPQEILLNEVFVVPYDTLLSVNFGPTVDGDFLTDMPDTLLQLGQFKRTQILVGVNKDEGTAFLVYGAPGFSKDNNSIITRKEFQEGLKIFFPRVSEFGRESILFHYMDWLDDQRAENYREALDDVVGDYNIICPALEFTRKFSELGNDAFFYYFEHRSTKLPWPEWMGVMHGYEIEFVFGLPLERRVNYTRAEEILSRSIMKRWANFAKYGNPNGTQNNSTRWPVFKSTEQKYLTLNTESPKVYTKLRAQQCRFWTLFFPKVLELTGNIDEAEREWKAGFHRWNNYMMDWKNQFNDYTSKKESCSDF
Kind of data set: biochemical. As to conditions: for inhibition at 200 µM: read-out: Inhibition Activity 200 µM BChE. The method, then: (§4) AChE and BChE inhibitory activity of the newly synthesized pyrrole-based compounds was measured using the microplate assay described by Ellman et al. with the modifications added by López et al.. The compounds were tested at concentrations between 0.01 and 200 μM. First, they were dissolved in phosphate buffer (PBS) (8 mM K2HPO4, 2.3 mM NaH2PO4, 0.15 M NaCl, pH 7.5), assisted by the addition of no more than 5% MeOH. Then, they were serially diluted with PBS to provide the concentration range needed. Acetylcholinesterase from Electrophorus electricus and butyrylcholinesterase from equine serum (Sigma-Aldrich, Hamburg, Germany) were used with a substrate solution of 5,5′-dithiobis(2-nitrobenzoic acid) (DTNB) with acetylthiocholine iodide (ATCI) or butyrylthiocholine iodide (BTCI), respectively (0.04 M Na2HPO4, 0.2 mM DTNB, 0.24 mM ATCI or BTCI, pH 7.5). A total of 50 μL of AChE or BChE (0.25 U/mL, in PBS) and 50 μL of the tested compound solution were added to the wells. Incubation of the plates was performed at room temperature for 30 min. Then, 100 μL of substrate solution was added to start the enzymatic reaction. […] Enzyme activity was calculated as an inhibition percentage compared to an assay including buffer instead of an inhibitor.

Another data set has as its target T3, AChE (Electrophorus electricus, UniProt O42275).
T3 construct: purchased Sigma-Aldrich, Hamburg, Germany
Kind of data set: biochemical. In kind it is biochemical. As to conditions: for inhibition at 200 µM: 200 µM compound; for IC50: means ± SD of three experiments. Here is the method: as §4

T3 sequence (O42275 24-633): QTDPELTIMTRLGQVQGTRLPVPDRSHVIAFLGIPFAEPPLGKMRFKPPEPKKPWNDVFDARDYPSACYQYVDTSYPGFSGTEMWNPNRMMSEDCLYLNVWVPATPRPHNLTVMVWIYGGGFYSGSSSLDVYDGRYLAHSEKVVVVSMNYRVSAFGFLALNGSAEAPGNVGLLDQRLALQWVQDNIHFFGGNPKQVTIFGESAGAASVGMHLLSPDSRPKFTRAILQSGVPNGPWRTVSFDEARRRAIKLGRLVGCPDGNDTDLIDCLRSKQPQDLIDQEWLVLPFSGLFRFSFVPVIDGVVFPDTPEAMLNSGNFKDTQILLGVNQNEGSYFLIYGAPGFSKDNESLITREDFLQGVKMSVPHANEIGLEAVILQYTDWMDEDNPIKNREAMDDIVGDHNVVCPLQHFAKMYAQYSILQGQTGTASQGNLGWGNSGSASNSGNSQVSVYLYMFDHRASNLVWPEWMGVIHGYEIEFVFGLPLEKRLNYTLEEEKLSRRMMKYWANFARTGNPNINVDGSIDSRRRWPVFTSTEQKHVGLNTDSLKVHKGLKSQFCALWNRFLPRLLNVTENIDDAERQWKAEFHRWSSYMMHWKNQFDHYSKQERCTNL

Consider `Cc1ccc(C)n1C(Cc1cnc[nH]1)C(=O)O` (stereo not shown) [EM-DC-19, 2-(2,5-dimethyl-1H-pyrrol-1-yl)-3-(2H-imidazol-4-yl)propanoic acid], for which the results for the “increase of MDA production compared to the control” value in data set [1] and in data set [4] were 20% and 50%, respectively. In addition, the inhibition at 1 µM in data set [2] came out at 50 ± 7.1%. For the same molecule, the “decrease of MDA production compared to the toxic agent” value in data set [3] stood at 60%. In data set [4], the “decrease of GSH level compared to the control” value was found to be 25%. For the same molecule, the IC50 was > 200 µM on BChE (BChE IC50, means ± SD of three experiments) and 76.2 ± 6.12 µM against AChE. The results for the inhibition at 200 µM at BChE and on AChE were 18.03 ± 0.17% and 73.98 ± 0.59%, respectively. For the same molecule, at AChE (ratio of AChE potencies), the “fold lower AChE inhibition potency compared to EM-DC-2” value is on record as “approximately 100 fold”.

Take `Cc1ccc(C)n1-c1ccc(CC(=O)O)cc1` [EM-DC-27, [4-(2,5-dimethyl-1H-pyrrol-1-yl)phenyl]acetic acid]: the “increase of MDA production compared to the control” value is on record as 40% in data set [1] and 70% in data set [4]. Further, the inhibition at 1 µM in data set [2] turned out to be 50 ± 7.1%. For the same molecule, the “decrease of MDA production compared to the toxic agent” value in data set [3] came to 56%. The “decrease of GSH level compared to the control” value in data set [4] came out at 25%. In addition, the IC50 at BChE (means ± SD of three experiments, read-out: BChE IC50) was > 200 µM; on AChE, > 200 µM. Besides, the inhibition at 200 µM is 0% on BChE and 26.5 ± 2.36% on AChE.
